The text below walks through data of patent publication US20110229553A1, “Plant Extract with Pharmacological Profile for Treating or Preventing Diseases, Dysfunctions and Disorders of the Central Nervous System, Neurodegenerative Disorders and Sequel from Vascular Dementia” (priority 2010, published 2011).

This assay concerns BALB/c mice MPTP induced tremor. Description: MPTP-induced tremor in BALB/c mice. In kind it is in vivo. Conditions: extract 25 or 50 mg/kg, apomorphine 3 mg/kg. The procedure:
Animals: Male adult mice, C57BL/6 and BALB/c strain (FEEPS) were used and maintain with water and foot ad libitum under controlled environment.
Treatments in BALB/c: MPTP (1-methyl-4-phenyl-1,2,3,6-tetrahydropyridine) 60 mg/kg (2×30 mg/kg) was administered intraperitonially (i.p.), twice, 16 h apart. Saline, DMSO 20%, Ptychopetalum olacoides extract 50 mg/kg (2×25 mg/kg), POEE 25 mg/kg (2×12.5 mg/kg) and apomorphine 3 mg/kg (2×1.5 mg/kg) were given 30 min before each MPTP administration. The animals received the first injections at 17:00 h and the second at 09:00 h the next day. The volume of injection was […] body weight. N=6.
Tremor in C57BL/6 and in BALB/c: Tremors were observed immediately after the administration of the second MPTP dose, with animals placed in a clear Plexiglas box (20 cm×20 cm×20 cm) for 45 min; tremor scores were noted every 3 min, with the highest score considered for the period. […]

As for `CN1CCc2cccc3c2[C@H]1Cc1ccc(O)c(O)c1-3` [apomorphine], the total tremor duration entry is recorded as “not affected”.
